Laboratory results as given in patent US9518081B2, “Peptide libraries” (BICYCLE THERAPEUTICS LIMITED, priority 2009, dated 2016).
*1 amine or outer side, *2 acyl side, *3 side chain or, on linkers, in order; H or OH if unused. Where a SMILES comes first, the peptide text is derived from it. Bridges are numbered along the chain shown (N, C = ends). TBMB = c1c(C[*:1])cc(C[*:3])cc1C[*:2]

Test system: chymotrypsin
Assay: Phage ELISA after DTT reduction and chymotrypsin treatment (resistance to proteolysis)
Type: in vitro ADME
Conditions: 5 mM DTT 20 min, chymotrypsin 50 ug/ml 2 min
Procedure: 0.6 μg/mL of biotinylated MDM2 peptide (res 2-125) was immobilized on a streptavidin-coated plate (Roche). Plate was blocked with PBSM (but 4% in milk powder) and linear or TBMB-conjugated phage (10^7 TU/well in PBSM in the presence or absence of 5 mM DTT) was incubated on the plate for 50 min at room temperature. Similarly, phage was first reduced in 5 mM DTT for 20 min, treated with chymotrypsin (50 ug/ml in PBS) for 2 min, mixed with PBSM (final concentration) and incubated on the plate for 50 min at room temperature. Phage was detected using an anti-M13-HRP monoclonal antibody (1:5000, Amersham).
Note that 5 mM DTT can reduce the disulphide bonds of chymotrypsin leading to its inactivation as a protease. […] In other experiments we have used up to 0.2 mM-5 mM TCEP in the presence of chymotrypsin (0.1 mg/ml-1 mg/ml) for 2 minutes at room temperature in PBS. These conditions also allowed us to distinguish between the linear and cyclic peptides on phage.

Compound	resistance of MDM2 binding to proteolysis
CC(C)C[C@@H]1NC(=O)[C@H](CCC(=O)O)NC(=O)[C@@H](NC(=O)[C@@H](N)CO)CSCc2cc3cc(c2)CSC[C@H](NC(=O)[C@H](CCCCN)NC(=O)[C@@H]2CCCN2C(=O)[C@H](CC(N)=O)NC(=O)[C@H](Cc2c[nH]c4ccccc24)NC1=O)C(=O)N[C@@H](CCCNC(=N)N)C(=O)N[C@@H](CC(C)C)C(=O)N[C@@H](CO)C(=O)N1CCC[C@H]1C(=O)N[C@@H](Cc1ccccc1)C(=O)N[C@@H](CCC(=O)O)C(=O)N[C@H](C(=O)N[C@@H](CCCCN)C(=O)NCC(=O)O)CSC3 [PEP10] (H-SCELWNPKCRLSPFECKG-OH; linker 2-9-16 via TBMB (inferred))	resistant to proteolysis
CC(C)[C@@H]1NC(=O)[C@@H](NC(=O)[C@@H](N)CO)CSCc2cc3cc(c2)CSC[C@H](NC(=O)[C@H]([C@@H](C)O)NC(=O)[C@H](Cc2c[nH]c4ccccc24)NC(=O)CNC(=O)[C@H](Cc2ccccc2)NC(=O)[C@H](CCCNC(=N)N)NC1=O)C(=O)N[C@@H](CC(=O)O)C(=O)N[C@@H](CC(N)=O)C(=O)N[C@@H](CO)C(=O)N[C@@H](Cc1c[nH]c2ccccc12)C(=O)N[C@@H](Cc1c[nH]cn1)C(=O)NCC(=O)N[C@H](C(=O)N[C@@H](CCCCN)C(=O)NCC(=O)O)CSC3 [PEP48] (H-SCVRFGWTCDNSWHGCKG-OH; linker 2-9-16 via TBMB (inferred))	resistant to proteolysis
